A short description of the data set: Phase solubility analysis (Higuchi-Connors plot) with HPβCD. Type of data set: physicochemical. The following applies: different concentrations of HPβCD in isotonic saline solutions. The text has this: In an attempt to solubilize the peptide, the effect of cyclodextrins was investigated. In particular, HPβCD, a cyclodextrin presented as preferable in most of the literature described above and used in composition for inhalation by Magalhães et al., was selected for testing. […] The skilled person is familiar with Higuchi-Connors plots and how to obtain them, as described, e.g., in Higuchi T. and Connors, Advances in Analytical Chemistry and Instrumentation, 1965, 177-212.

Molecules are shown by their SMILES.

The record followed here is patent publication EP4371556B1, “ANGIOTENSIN(1-7) PHARMACEUTICAL COMPOSITIONS FOR INHALATION” (Explicat Pharma GmbH, priority 2022, dated 2026).

For `CC[C@H](C)[C@H](NC(=O)[C@H](Cc1ccc(O)cc1)NC(=O)[C@@H](NC(=O)[C@H](CCCNC(=N)N)NC(=O)[C@@H](N)CC(=O)O)C(C)C)C(=O)N[C@@H](Cc1c[nH]cn1)C(=O)N1CCC[C@H]1C(=O)O` [AT1-7, Asp-Arg-Val-Tyr-Ile-His-Pro], the “solubilising effect of HPβCD on AT1-7” value was “substantially no solubilising effect”.
